The results in this text go back to ChEMBL document CHEMBL6071186, “Design, Synthesis, and Structural Evaluation of Acetylated Phenylthioketone Inhibitors of HDAC10” (ACS Med Chem Lett, 2024).

Assay [1] concerns the target T1, Polyamine deacetylase HDAC10 (Homo sapiens) (UniProt Q969S8).
T1 sequence (whole entry): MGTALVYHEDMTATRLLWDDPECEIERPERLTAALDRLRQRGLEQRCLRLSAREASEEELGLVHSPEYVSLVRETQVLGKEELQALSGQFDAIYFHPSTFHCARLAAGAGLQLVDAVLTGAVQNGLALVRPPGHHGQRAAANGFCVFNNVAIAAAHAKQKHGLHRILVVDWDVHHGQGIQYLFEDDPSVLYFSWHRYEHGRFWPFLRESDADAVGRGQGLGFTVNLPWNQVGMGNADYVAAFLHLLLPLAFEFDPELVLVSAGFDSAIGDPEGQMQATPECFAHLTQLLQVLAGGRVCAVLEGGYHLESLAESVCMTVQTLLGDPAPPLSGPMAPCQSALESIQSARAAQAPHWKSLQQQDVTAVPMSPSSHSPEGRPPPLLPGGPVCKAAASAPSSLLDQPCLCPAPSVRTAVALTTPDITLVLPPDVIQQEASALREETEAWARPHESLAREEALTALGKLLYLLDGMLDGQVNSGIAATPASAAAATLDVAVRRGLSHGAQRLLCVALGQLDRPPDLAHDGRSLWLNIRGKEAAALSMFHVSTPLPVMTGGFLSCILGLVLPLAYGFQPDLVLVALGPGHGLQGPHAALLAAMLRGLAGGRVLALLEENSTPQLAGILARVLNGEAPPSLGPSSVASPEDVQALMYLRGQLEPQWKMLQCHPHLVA
Conditions: dose 500.0 µM.
Description: Binding affinity to humanized HDAC10 (A24E to D94A residues) (unknown origin) extracted from Danio rerio assessed as thermal stability by measuring melting temperature at 500 uM by differential scanning fluorimetry analysis (Rvb = 47.8+/-0.1degreeC)

Assay [2] has as its target T1, Polyamine deacetylase HDAC10 (Homo sapiens). Conditions: dose 500.0 µM. The source holds these as a separate data set.
Description: Binding affinity to humanized HDAC10 (A24E to D94A residues) (unknown origin) extracted from Danio rerio assessed as change in melting temperature at 500 uM by differential scanning fluorimetry analysis

In general, ΔTm refers to the shift of the melting midpoint relative to a reference.

In the case of `CN1CCc2c(c3ccccc3n2Cc2ccc(C(=O)NO)cc2)C1`, the Tm in assay [1] was 65.5 °C. In addition, the ΔTm in assay [2] came to 17.7 °C.
